Source: patent US6982348B2, “Aminoethanol derivatives” (Takeda Pharmaceutical Company Limited, priority 2001, dated 2006)

| melting point [°C] | SMILES |
| --- | --- |
| 197 to 199 | NC(=O)c1ccc([C@H](O)[C@@H](Cc2cccc(OC(F)(F)C(F)F)c2)NC(=O)c2cccc3c2C=CCCC3)cc1 (racemic) [Example 311, N-[(1RS,2SR)-2-[4-(aminocarbonyl)phenyl]-2-hydroxy-1-[3-(1,1,2,2-tetrafluoroethoxy)benzyl]ethyl]-6,7-dihydro-5H-benzo[a]cycloheptene-1-carboxamide] |
| 176 to 177 | O=C(N[C@H](Cc1cccc(OC(F)(F)C(F)F)c1)[C@@H](O)c1ccc(C(=O)N2CCCCC2)cc1)c1cccc2c1C=CCCC2 (racemic) [Example 313, N-[(1RS,2SR)-2-hydroxy-2-[4-(piperidinocarbonyl)phenyl]-1-[3-(1,1,2,2-tetrafluoroethoxy)benzyl]ethyl]-6,7-dihydro-5H-benzo[a]cycloheptene-1-carboxamide] |
| 205 to 206 | O=C(Nc1ccccc1)c1ccc([C@H](O)[C@@H](Cc2cccc(OC(F)(F)C(F)F)c2)NC(=O)c2cccc3c2C=CCCC3)cc1 (racemic) [Example 314, N-[(1RS,2SR)-2-[4-(anilinocarbonyl)phenyl]-2-hydroxy-1-[3-(1,1,2,2-tetrafluoroethoxy)benzyl]ethyl]-6,7-dihydro-5H-benzo[a]cycloheptene-1-carboxamide] |
| 215 to 217 | CC(C)NC(=O)c1ccc([C@H](O)[C@@H](Cc2cccc(OC(F)(F)C(F)F)c2)NC(=O)c2cccc3c2C=CCCC3)cc1 (racemic) [Example 315, N-[(1RS,2SR)-2-hydroxy-2-[4-[(isopropylamino)carbonyl]phenyl]-1-[3-(1,1,2,2-tetrafluoroethoxy)benzyl]ethyl]-6,7-dihydro-5H-benzo[a]cycloheptene-1-carboxamide] |

The next lines start with the molecule.

| SMILES | melting point [°C] |
| --- | --- |
| CC1(C)CCC=Cc2c(C(=O)N[C@H](Cc3cccc(OC(F)(F)C(F)F)c3)[C@@H](O)c3ccc(F)cc3)cccc21 (racemic) [Example 305, N-[(1RS,2SR)-2-(4-fluorophenyl)-2-hydroxy-1-[3-(1,1,2,2-tetrafluoroethoxy)benzyl]ethyl]-5,5-dimethyl-6,7-dihydro-5H-benzo[a]cycloheptene-1-carboxamide] | 101 to 104 |
| COC(=O)c1ccc([C@@H](O)[C@H](Cc2cccc(OC(F)(F)C(F)F)c2)NC(=O)OC(C)(C)C)cc1 (racemic) [Example 308, methyl 4-[(1RS,2SR)-2-[(tert-butoxycarbonyl)amino]-1-hydroxy-3-[3-(1,1,2,2-tetrafluoroethoxy)phenyl]propyl]benzoate] | 148 to 150 |
| COC(=O)c1ccc([C@@H](O)[C@H](Cc2cccc(OC(F)(F)C(F)F)c2)NC(=O)c2cccc3c2C=CCCC3)cc1 (racemic) [Example 309, methyl 4-[(1RS,2SR)-2-[(6,7-dihydro-5H-benzo[a]cyclohepten-1-ylcarbonyl)amino]-1-hydroxy-3-[3-(1,1,2,2-tetrafluoroethoxy)phenyl]propyl]benzoate] | 137 to 138 |
| O=C(O)c1ccc([C@@H](O)[C@H](Cc2cccc(OC(F)(F)C(F)F)c2)NC(=O)c2cccc3c2C=CCCC3)cc1 (racemic) [Example 310, 4-[(1RS,2SR)-2-[(6,7-dihydro-5H-benzo[a]cyclohepten-1-ylcarbonyl)amino]-1-hydroxy-3-[3-(1,1,2,2-tetrafluoroethoxy)phenyl]propyl]benzoic acid] | 210 to 211 |
| CN(C)C(=O)c1ccc([C@H](O)[C@@H](Cc2cccc(OC(F)(F)C(F)F)c2)NC(=O)c2cccc3c2C=CCCC3)cc1 (racemic) [Example 312, N-[(1RS,2SR)-2-[4-[(dimethylamino)carbonyl]phenyl]-2-hydroxy-1-[3-(1,1,2,2-tetrafluoroethoxy)benzyl]ethyl]-6,7-dihydro-5H-benzo[a]cycloheptene-1-carboxamide] | 165 to 166 |
